The record followed here is patent US12285446B2, “Compositions and methods for improving mitochondrial function” (priority 2018, dated 2025).

Assay [1] deals with UbV-gfp. Description: UbV-gfp reporter. Further details: species or system Caenorhabditis elegans. The settings on record: in vivo. How it is done: To address how Gluconacetobacter spp feeding improves mitochondrial function, a variety of transgenic worm strains were tested, including worms that carry a construct encoding a fusion protein comprising a GFP reporter protein and a gene product that is involved in stress response, mitochondrial activity, peroxisomal function, innate immune response, and different signaling pathways (Table 1; FIGS. 2C-2K; FIGS. 6C-6L; FIGS. 7A-7D).

Assay [2] concerns phsp-6::gfp induced by human Aβ1-42. Description: phsp-6::gfp UPRmt reporter in worms with panneuronal human Aβ1-42. It is filed as in vivo, Caenorhabditis elegans. Particulars: compound treatment.
Experimental: Thus, it is possible to screen for interventions that will reduce the UPRmt induction by modulating the Aβ aggregation or toxicity of Aβ on mitochondria.
For the screen, thirty microbial strains including the negative control bacteria E. coli OP50 were grown in appropriate culture media conditions and spotted onto standard nematode growth medium plates. ˜30 synchronized L1-larval-stage transgenic worm expressing Aβ 1-42 or tau in the pan-neurons were dropped onto the seeded plates and scored visually after 4 days under a fluorescent microscope for changes in phsp-6::gfp expression (FIG. 13).

Consider `CC(C)C[C@H](NC(=O)[C@H](Cc1ccccc1)NC(=O)c1cnccn1)B(O)O` [Bortezomib], for which, in assay [1], the UbV-gfp expression entry was “stabilizes UbV-gfp”.

As for `Cc1ccc2c(c1)sc(-c1ccc(N(C)C)cc1)[n+]2C.[Cl-]` [Thioflavin T], the “induction of UPRmt (phsp-6::gfp) in Aβ worms treated with compound” value in assay [2] is on record as “induction of UPRmt was reduced”.
